This experiment has as its system SVR cells. The experiment is described as follows: SVR cell assay: cell numbers counted at 48 hours, percent inhibition versus control. It is filed as cell-based, murine. The settings on record: 10,000 SVR cells in 24 well dish, counted at 48 hours; for Percent Inhibition at a Specified Density (μg/ml): 1 / inhibition at 1 µg/mL: 1 μg/ml; for Percent Inhibition at a Specified Density (μg/ml): 3 / inhibition at 3 µg/mL: 3 μg/ml; for Percent Inhibition at a Specified Density (μg/ml): 6 / inhibition at 6 µg/mL: 6 μg/ml; for inhibition at 1 µg/mL: read-out: Percent Inhibition at a Specified Density (μg/ml): 1; for inhibition at 3 µg/mL: read-out: Percent Inhibition at a Specified Density (μg/ml): 3; for inhibition at 6 µg/mL: read-out: Percent Inhibition at a Specified Density (μg/ml): 6.

Experimental: In the case of testing the anti-angiogenic/anti-cancer activity of compounds according to the present invention, an assay based on SVR cells may be employed. […] The cell numbers are counted and compared against controls. Percent inhibition is readily determined from the data obtained.
10,000 SVR cells were seeded in a 24 well dish [Arbiser, et al., J. Am. […] The cell numbers were counted at 48 hours.

As for `O=C(C=Cc1c2ccccc2cc2ccccc12)c1c2ccccc2cc2ccccc12` [Compound 53, 1,3-Di(9-Anthryl)propenone], the “Percent Inhibition at a Specified Density (μg/ml): 1” value (from here on “Percent Inhibition … 1”) is reported as 0.0%, the “Percent Inhibition at a Specified Density (μg/ml): 3” value (“Percent Inhibition … 3” for short) came out at 0.0% and the “Percent Inhibition at a Specified Density (μg/ml): 6” value (“Percent Inhibition … 6” below) is recorded as 4.7%.

Regarding `O=C(C=Cc1ccccc1)c1ccc[nH]1` [Compound 49, 3-Phenyl-1-(2-pyrrolyl)propenone], the “Percent Inhibition … 1” value is recorded as 8.3%, the “Percent Inhibition … 3” value is given as 11.4% and the “Percent Inhibition … 6” value is 19.4%.

On to `O=C1C(=Cc2ccccc2)C(=O)c2ccccc21` [Compound 8, 2-(Benzylidene)-1,3-indanedione], for which, for the setting “Mus musculus”, the inhibition at 1 µg/mL was determined as 91.1%, the inhibition at 3 µg/mL was 14% and the inhibition at 6 µg/mL came to 34%.

`O=C(/C=C/c1ccco1)/C=C/c1ccco1` [Compound 74, 1,5-Di(2-furyl)-1E,4E-pentadien-3-one]: for the setting “Mus musculus”, the inhibition at 1 µg/mL is 0%, the inhibition at 3 µg/mL was 9.3% and the inhibition at 6 µg/mL turned out to be 56.5%.

Regarding `O=C(/C=C/c1ccc(OCc2ccccc2)cc1)c1ccc(Cl)cc1` [Compound 25, 4-Benzyloxy-4′-chlorochalcone], under “Mus musculus”, the inhibition at 1 µg/mL amounted to 25.6%, the inhibition at 3 µg/mL came out at 4.4% and the inhibition at 6 µg/mL amounted to 62.9%.

With `CC(=O)C(=Cc1ccccc1)C(C)=O` [Compound 9, 3-Benzylidene-2,4-pentanedione], under “Mus musculus”, the inhibition at 1 µg/mL is 48.3%, the inhibition at 3 µg/mL came to 72% and the inhibition at 6 µg/mL was 82.7%.

On to `O=C(/C=C/c1ccccc1)c1cccc(C(F)(F)F)c1` [Compound 18, 3′-(Trifluoromethyl)chalcone], for which, where the note is “Mus musculus”, the inhibition at 1 µg/mL amounted to 42.2%, the inhibition at 3 µg/mL is 87.4% and the inhibition at 6 µg/mL was determined as 96.9%.

For `O=C1C(=Cc2c(Cl)cccc2Cl)COc2ccccc21` [Compound 67, 3-(2,6-Dichlorobenzylidene)chromanone], the “Percent Inhibition … 1” value is listed as 5.4%, the “Percent Inhibition … 3” value is 3.6% and the “Percent Inhibition … 6” value is 12.5%.

As for `O=C(C=Cc1ccccc1)c1ccco1` [Compound 44, 1-(2-Furyl)-3-phenylpropenone], the “Percent Inhibition … 1” value is 28.2%, the “Percent Inhibition … 3” value worked out at 57.7% and the “Percent Inhibition … 6” value worked out at 90.2%.

With `Cc1ccc(C(=O)/C=C/c2ccc(Cl)cc2Cl)cc1` [Compound 27, 2,4-Dichloro-4′-methylchalcone], under “Mus musculus”, the inhibition at 1 µg/mL was 19.9%, the inhibition at 3 µg/mL turned out to be 10.4% and the inhibition at 6 µg/mL worked out at 84.6%.

`O=C(C=Cc1c(Cl)cccc1Cl)c1ccc2ccccc2c1` [Compound 59, 3-(2,6-Dichlorophenyl)-1-(2-naphthyl)propenone]: the “Percent Inhibition … 3” value stood at 81.0% and the “Percent Inhibition … 6” value is 97.4%. The “Percent Inhibition at a Specified Density (μg/ml): 9” value (shortened to “Percent Inhibition … 9”) (9 μg/ml) stood at 98.3%.

Take `O=C(/C=C/c1c(F)cccc1Cl)/C=C/c1c(F)cccc1Cl` [Compound 72, 1,5-Di(2-chloro-6-fluorophenyl)-1E,4E-pentadien-3-one]: for the setting “Mus musculus”, the inhibition at 1 µg/mL worked out at 57%, the inhibition at 3 µg/mL was 70.6% and the inhibition at 6 µg/mL came to 86.6%.

Take `O=C(C=Cc1c2ccccc2cc2ccccc12)c1ccccc1` [Compound 52, 3-(9-Anthryl)-1-phenylpropenone]: the “Percent Inhibition … 1” value was 54.6%, the “Percent Inhibition … 3” value was determined as 53.5% and the “Percent Inhibition … 6” value was 71.3%.

Take `O=C(C=Cc1cccnc1)c1ccccc1` [Compound 48, 1-Phenyl-3-(3-pyridyl)propenone]: the “Percent Inhibition … 1” value is given as 30.0%, the “Percent Inhibition … 3” value worked out at 31.7% and the “Percent Inhibition … 6” value was 83.2%.

Take `O=C(/C=C/c1ccccc1)c1c(Cl)cccc1Cl` [Compound 33, 2′,6′-Dichlorochalcone]: for the setting “Mus musculus”, the inhibition at 1 µg/mL turned out to be 2.23%, the inhibition at 3 µg/mL was 51.1% and the inhibition at 6 µg/mL was determined as 88.7%.

With `O=c1ccoc2ccccc12` [Compound 15, Chromone, reference compound], for the setting “Mus musculus”, the inhibition at 1 µg/mL was determined as 20.6%, the inhibition at 3 µg/mL was found to be 8.2% and the inhibition at 6 µg/mL came to 20.8%.

Turning to `O=C1C(=Cc2c(Cl)cccc2Cl)CCc2ccccc21` [Compound 69, 2-(2,6-Dichlorobenzylidene)tetralone], the “Percent Inhibition … 1” value is 32.8%, the “Percent Inhibition … 3” value amounted to 37.0% and the “Percent Inhibition … 6” value is 53.7%.

As to `O=C(C=Cc1ccc[nH]1)c1ccccc1` [Compound 50, 1-Phenyl-3-(2-pyrrolyl)propenone], the “Percent Inhibition … 1” value came out at 19.0%, the “Percent Inhibition … 3” value was found to be 21.5% and the “Percent Inhibition … 6” value is reported as 0.0%.

In the case of `Cc1ccc(C(=O)/C=C/c2c(Cl)cccc2Cl)cc1` [Compound 28, 2,6-Dichloro-4′-methylchalcone], under “Mus musculus”, the inhibition at 1 µg/mL is 73.7%, the inhibition at 3 µg/mL amounted to 98.2% and the inhibition at 6 µg/mL came out at 98.1%.

Take `Cc1ccc(C(=O)/C=C/c2ccc(C(C)C)cc2)cc1` [Compound 26, 4-Isopropyl-4′-methylchalcone]: for the setting “Mus musculus”, the inhibition at 1 µg/mL was determined as 19.5%, the inhibition at 3 µg/mL is 14.2% and the inhibition at 6 µg/mL was found to be 59.2%.

On to `O=C(/C=C/c1c(Cl)cccc1Cl)c1ccccc1` [Compound 31, 2,6-Dichlorochalcone], for which, for the setting “Mus musculus”, the inhibition at 3 µg/mL was 92.9% and the inhibition at 6 µg/mL is 97.5%. For the same compound, the inhibition at 9 µg/mL (Mus musculus, 9 μg/ml, read-out: Percent Inhibition at a Specified Density (μg/ml): 9) is 97.9%.

Turning to `O=C(C=Cc1ccccn1)c1ccccc1` [Compound 47, 1-Phenyl-3-(2-pyridyl)propenone], the “Percent Inhibition … 1” value is on record as 40.7%, the “Percent Inhibition … 3” value stood at 89.1% and the “Percent Inhibition … 6” value worked out at 96.9%.

As to `O=C(C=Cc1cccc2ccccc12)c1cccc2ccccc12` [Compound 65, 1,3-Di(1-naphthyl)propenone], the “Percent Inhibition … 1” value stood at 12.0%, the “Percent Inhibition … 3” value came to 55.5% and the “Percent Inhibition … 6” value is listed as 60.3%.

With `O=C(O)Cc1ccc(C(=O)/C=C/c2ccccc2)cc1` [Compound 17, 4′-Carboxymethylchalcone], for the setting “Mus musculus”, the inhibition at 1 µg/mL was 13.7%, the inhibition at 3 µg/mL turned out to be 3.8% and the inhibition at 6 µg/mL stood at 29.7%.

Consider `O=C(C=Cc1ccc2ccccc2c1)c1c2ccccc2cc2ccccc12` [Compound 54, 1-(9-Anthryl)-3-(2-naphthyl)propenone], for which the “Percent Inhibition … 1” value came out at 52.5%, the “Percent Inhibition … 3” value is 57.3% and the “Percent Inhibition … 6” value turned out to be 48.1%.

Turning to `O=C(C=Cc1ccc2ccccc2c1)c1cccc2ccccc12` [Compound 64, 1-(1-Naphthyl)-3-(2-naphthyl)propenone], the “Percent Inhibition … 1” value turned out to be 0.0%, the “Percent Inhibition … 3” value amounted to 22.4% and the “Percent Inhibition … 6” value is on record as 52.0%.

With “2-(2-Naphthylidene)tetralone [Compound 71]”, the “Percent Inhibition … 3” value is 82.8% and the “Percent Inhibition … 6” value was determined as 88.7%. Also, the “Percent Inhibition … 9” value (9 μg/ml) stood at 87.1%.

As to `COc1cccc(OC)c1/C=C/C(=O)c1c(OC)cccc1OC` [Compound 37, 2,2′,6,6′-Tetramethoxychalcone], under “Mus musculus”, the inhibition at 1 µg/mL was 36.2%, the inhibition at 3 µg/mL turned out to be 49.2% and the inhibition at 6 µg/mL came to 39.2%.

For `Cc1ccc(/C=C/C(=O)c2ccc(Cl)cc2)cc1` [Compound 29, 4′-Chloro-4-methylchalcone], for the setting “Mus musculus”, the inhibition at 1 µg/mL stood at 29.9%, the inhibition at 3 µg/mL was found to be 40.2% and the inhibition at 6 µg/mL turned out to be 58.5%.

With `O=C(C=Cc1ccco1)c1ccccc1` [Compound 45, 3-(2-Furyl)-1-phenylpropenone], the “Percent Inhibition … 1” value was determined as 9.8%, the “Percent Inhibition … 3” value came to 1.0% and the “Percent Inhibition … 6” value is listed as 0.0%.

On to `CC(=O)c1cc2ccccc2oc1=O` [Compound 13, 3-Acetylcoumarin, reference compound], for which, under “Mus musculus”, the inhibition at 1 µg/mL was 26%, the inhibition at 3 µg/mL was 4.9% and the inhibition at 6 µg/mL is 13%.

Turning to `O=C(C=Cc1ccc2ccccc2c1)c1ccccc1` [Compound 62, 3-(2-Naphthyl)-1-phenylpropenone], the “Percent Inhibition … 3” value is 29.5% and the “Percent Inhibition … 6” value is reported as 44.3%. Moreover, the “Percent Inhibition … 9” value (9 μg/ml) was determined as 69.1%.

Consider `O=C1C(=Cc2c(Cl)cccc2Cl)CCCC1=Cc1c(Cl)cccc1Cl` [Compound 76, 2,6-Bis(2,6-dichlorobenzylidene)cyclohexanone], for which, for the setting “Mus musculus”, the inhibition at 1 µg/mL came to 8.4%, the inhibition at 3 µg/mL was 29.8% and the inhibition at 6 µg/mL was 27.1%.

Turning to `O=C(/C=C/c1c(F)c(F)c(F)c(F)c1F)c1ccccc1` [Compound 35, 2,3,4,5,6-Pentafluorochalcone], under “Mus musculus”, the inhibition at 1 µg/mL worked out at 0%, the inhibition at 3 µg/mL turned out to be 0% and the inhibition at 6 µg/mL stood at 0%.

Source of the values: patent US7432303B2, “Chalcone and its analogs as agents for the inhibition of angiogenesis and related disease states” (James and Emory University, priority 1999, dated 2008).
